For the assay, the target named is T1, human V1a receptor (Homo sapiens, UniProt P37288).
T1 construct: host or cells: CHO cells (hV1a cell line)
The experiment in a line: Human vasopressin V1a receptor binding assay (3H-AVP competition, hV1a CHO cells). Conditions: 3H-AVP competition, CHO cells expressing human V1a; for Ki: read-out: V1a Ki; for IC50: read-out: V1a Binding Affinity IC50. As to the method: Human vasopression V1a receptor binding assay. A cell line expressing the human V1a receptor in CHO cells (henceforth referred to as the hV1a cell line) was obtained from Dr. Michael Brownstein, NIMH, Bethesda, Md., USA. The hV1a cDNA sequence is described by Thibonnier et al., Journal of Biological Chemistry, 269, 3304-3310 (1994), and the expression method was the same as described by Morel et al. (1992). The hV1a cell line was grown in alpha-MEM with 10% fetal bovine serum and 250 ug/ml G418 (Gibco, Grand Island, N.Y., USA). For competitive binding assay, hV1a cells were plated into 6-well culture plate at 1:10 dilution from a confluency flask, and maintained in culture for at least two days. Culture medium was then removed, cells were washed with 2 ml binding buffer (25 mM Hepes, 0.25% BSA, 1×DMEM, PH=7.0). To each well, 990 μl binding buffer containing InM 3H-AVP was added, and followed by 10 μl series diluted Example compounds dissolved in DMSO. […] 100 nM cold AVP (Sigma) was used to assess non-specific binding. Cells were incubated for 45 minutes at 37° C., assay mixture was removed and each well was washed three times with PBS (pH=7.4). 1 ml 2% SDS was added per well and plates were let sit for 30 minutes. The whole content in a well was transferred to a scintillation vial. Each well was rinsed with 0.5 ml PBS which was then added to the corresponding vial. Scintillation fluid (Ecoscint, National Diagnostics, Atlanta, Ga.) was then added at 3 ml per vial. Samples were counted in a liquid scintillation counter (Beckman LS3801). IC50 values were calculated by Prism Curve fitting software.
All of the alkanedioic esters and amides exemplified in the foregoing examples dissolved in DMSO were tested in this assay. Binding curves were generated according to methods described by Thibonnier et al. (1994). [^3H]-AVP was added to the hV1a cell cultures followed by 10-fold dilutions of each test compound.

This note sets out measurements from patent US11319306B2, “Compositions and methods for treating neurodegenerative diseases” (Azevan Pharmaceuticals, Inc., priority 2014, dated 2022).

T1 sequence (P37288 whole entry): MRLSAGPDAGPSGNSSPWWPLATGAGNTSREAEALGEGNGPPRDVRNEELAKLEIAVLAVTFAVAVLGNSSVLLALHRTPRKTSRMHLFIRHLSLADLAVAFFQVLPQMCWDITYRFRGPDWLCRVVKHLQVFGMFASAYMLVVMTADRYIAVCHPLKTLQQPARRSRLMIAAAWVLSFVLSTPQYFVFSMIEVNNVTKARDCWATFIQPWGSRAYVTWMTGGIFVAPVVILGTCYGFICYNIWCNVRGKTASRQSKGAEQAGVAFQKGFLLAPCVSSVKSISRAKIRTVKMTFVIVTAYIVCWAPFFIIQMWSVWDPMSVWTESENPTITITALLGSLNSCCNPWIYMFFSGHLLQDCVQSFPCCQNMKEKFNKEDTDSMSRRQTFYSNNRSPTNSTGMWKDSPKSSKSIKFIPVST

The Ki is a measure of affinity in units of concentration, obtained from inhibition or displacement. With `O=C(NCc1cccc(C(F)(F)F)c1)C(C(=O)N1CCN(CCc2ccccc2)CC1)N1C(=O)[C@@H](N2C(=O)OC[C@@H]2c2ccccc2)[C@H]1/C=C/c1ccccc1` (mixture of isomers) [Example 38], the Ki came out at 85 nM.
Same read-out and setting: to `CC(C)N1CCN(C(=O)C(C(=O)NCc2cccc(C(F)(F)F)c2)N2C(=O)[C@@H](N3C(=O)OC[C@@H]3c3ccccc3)[C@H]2/C=C/c2ccccc2)CC1` (mixture of isomers) [Example 41] belongs 18.2 nM; to `O=C(NCc1cccc(C(F)(F)F)c1)C(C(=O)N1CCN(C2CCCCC2)CC1)N1C(=O)[C@@H](N2C(=O)OC[C@@H]2c2ccccc2)[C@H]1/C=C/c1ccccc1` (mixture of isomers) [Example 42], 26.4 nM.
On to `O=C(NC(c1ccccc1)C(F)(F)F)C(CC(=O)N1CCC(N2CCCCC2)CC1)N1C(=O)C(N2C(=O)OCC2c2ccccc2)C1C=Cc1ccccc1` (single isomer, unassigned) [Example 623], for which the Ki was 0.85 nM.
With `O=C(NC(c1ccccc1)C(F)(F)F)C(CC(=O)N1CCC(N2CCCCC2)CC1)N1C(=O)C(N2C(=O)OCC2c2ccccc2)C1C=Cc1ccccc1` (single isomer, unassigned) [Example 626], the Ki amounted to 0.27 nM.
The term IC50 denotes the concentration needed to halve the response being measured. As to `CC(C)(C)OC(=O)C(C(=O)NCc1cccc(C(F)(F)F)c1)N1C(=O)C(N2C(=O)OCC2c2ccccc2)C1C=Cc1ccccc1` [Example 18, 2(RS)-(tert-Butoxycarbonyl)-2-[3(S)-(4(S)-phenyloxazolidin-2-on-3-yl)-4(R)-(2-styryl)azetidin-2-on-1-yl]acetic acid N-(3-trifluoromethylbenzyl)amide], the IC50 was determined as 35 nM.
As for `CC(C)(C)OC(=O)CC(C(=O)NCc1cccc(C(F)(F)F)c1)N1C(=O)C(N2C(=O)OCC2c2ccccc2)C1C=Cc1ccccc1` [Example 19, 2(S)-(tert-Butoxycarbonylmethyl)-2-[3(S)-(4(S)-phenyloxazolidin-2-on-3-yl)-4(R)-(2-styryl)azetidin-2-on-1-yl]acetic acid N-(3-trifluoromethylbenzyl)amide], the IC50 was 35 nM.
Turning to `CC(C)(C)OC(=O)CCC(C(=O)NCc1cccc(C(F)(F)F)c1)N1C(=O)C(N2C(=O)OCC2c2ccccc2)C1C=Cc1ccccc1` [Example 20, 2(S)-(tert-Butoxycarbonylethyl)-2-[3(S)-(4(S)-phenyloxazolidin-2-on-3-yl)-4(R)-(2-styryl)azetidin-2-on-1-yl]acetic acid N-(3-trifluoromethylbenzyl)amide], the IC50 was determined as 35 nM.
For the molecule `O=C(NCc1cccc(C(F)(F)F)c1)C(C(=O)N1CCC(N2CCCCC2)CC1)N1C(=O)C(N2C(=O)OCC2c2ccccc2)C1C=Cc1ccccc1` (stereo not shown) [Example 37], the IC50 is 5.5 nM and the Ki came out at 3.39 nM.
For `O=C(NCc1cccc(C(F)(F)F)c1)C(C(=O)NC1CCN(Cc2ccccc2)CC1)N1C(=O)C(N2C(=O)OCC2c2ccccc2)C1C=Cc1ccccc1` (stereo not shown) [Example 39] the same measures were 23 nM and 13.3 nM.
For `CCCCN1CCN(C(=O)C(C(=O)NCc2cccc(C(F)(F)F)c2)N2C(=O)C(N3C(=O)OCC3c3ccccc3)C2C=Cc2ccccc2)CC1` (stereo not shown) [Example 40] the same measures were 11 nM and 6.5 nM.
For `O=C(NCc1cccc(C(F)(F)F)c1)C(C(=O)N1CCC(CCN2CCCCC2)CC1)N1C(=O)C(N2C(=O)OCC2c2ccccc2)C1C=Cc1ccccc1` (stereo not shown) [Example 42A] the same measures were 1.77 nM and 1.17 nM.
Turning to `O=C(CC(C(=O)NCc1cccc(C(F)(F)F)c1)N1C(=O)C(N2C(=O)OCC2c2ccccc2)C1C=Cc1ccccc1)NC1CCN(Cc2ccccc2)CC1` (stereo not shown) [Example 63], the IC50 amounted to 1.84 nM and the inhibition constant (Ki) worked out at 1.13 nM.
In the case of `O=C(NCc1cccc(C(F)(F)F)c1)[C@H](CC(=O)N1CCCN(Cc2ccccc2)CC1)N1C(=O)[C@@H](N2C(=O)OC[C@@H]2c2ccccc2)[C@H]1/C=C/c1ccccc1` [Example 82], the Ki was determined as 5.12 nM.
As for `O=C(CC(C(=O)NCc1cccc(C(F)(F)F)c1)N1C(=O)C(N2C(=O)OCC2c2ccccc2)C1C=Cc1ccccc1)NC1CCN(Cc2ccccc2)C1` (stereo not shown) [Example 85], the half-maximal inhibitory concentration (IC50) amounted to 5.87 nM and the Ki was 3.6 nM.
For `O=C(NCc1cccc(C(F)(F)F)c1)C(CC(=O)N1CCC(CCN2CCCCC2)CC1)N1C(=O)C(N2C(=O)OCC2c2ccccc2)C1C=Cc1ccccc1` (stereo not shown) [Example 86A] the same measures were 9.79 nM and 6 nM.
As to `O=C(CC[C@@H](C(=O)NCc1cccc(C(F)(F)F)c1)N1C(=O)[C@@H](N2C(=O)OC[C@@H]2c2ccccc2)[C@H]1/C=C/c1ccccc1)NCCN1CCCCC1` [Example 87], the IC50 is 15 nM.
In the case of `O=C(NCc1cccc(C(F)(F)F)c1)[C@H](CCC(=O)N1CCN(N2CCCC2)CC1)N1C(=O)[C@@H](N2C(=O)OC[C@@H]2c2ccccc2)[C@H]1/C=C/c1ccccc1` [Example 91], the IC50 came to 3.24 nM and the Ki was 1.99 nM.
The matching figures for `O=C(NCc1cccc(C(F)(F)F)c1)C(CCC(=O)N1CCN(Cc2ccccc2)CC1)N1C(=O)C(N2C(=O)OCC2c2ccccc2)C1C=Cc1ccccc1` (stereo not shown) [Example 95]: 1.76 nM and 1.08 nM.
For `O=C(NCc1cccc(C(F)(F)F)c1)C(CCC(=O)N1CCN(Cc2ccc3c(c2)OCO3)CC1)N1C(=O)C(N2C(=O)OCC2c2ccccc2)C1C=Cc1ccccc1` (stereo not shown) [Example 96], the IC50 is 4.35 nM and the Ki was determined as 2.66 nM.
The matching figures for `O=C(NCc1cccc(C(F)(F)F)c1)C(CCC(=O)N1CCN(CCC2CCCCC2)CC1)N1C(=O)C(N2C(=O)OCC2c2ccccc2)C1C=Cc1ccccc1` (stereo not shown) [Example 111]: 1.31 nM and 0.82 nM.
For `O=C(NCc1cccc(C(F)(F)F)c1)C(CCC(=O)N1CCN(CCN2CCOCC2)CC1)N1C(=O)C(N2C(=O)OCC2c2ccccc2)C1C=Cc1ccccc1` (stereo not shown) [Example 112] the same measures were 1.34 nM and 0.8 nM.
As to `O=C(NCc1cccc(C(F)(F)F)c1)C(CCC(=O)N1CCC(CCN2CCCCC2)CC1)N1C(=O)C(N2C(=O)OCC2c2ccccc2)C1C=Cc1ccccc1` (stereo not shown) [Example 120A], the IC50 is 16.2 nM and the Ki came out at 9.9 nM.
Turning to `CCCN1CCN(C(=O)CCC(C(=O)NCc2cccc(C(F)(F)F)c2)N2C(=O)C(N3C(=O)OCC3c3ccccc3)C2C=Cc2ccccc2)CC1` (stereo not shown) [Example 120B], the IC50 is 2.93 nM and the Ki worked out at 1.79 nM.
Take `O=C(NCc1cccc(C(F)(F)F)c1)C(CCC(=O)N1CCN(CC2CCCCC2)CC1)N1C(=O)C(N2C(=O)OCC2c2ccccc2)C1C=Cc1ccccc1` (stereo not shown) [Example 120]: the IC50 was 0.75 nM and the Ki came to 0.46 nM.
For the molecule `O=C(NC1(c2ccccc2)CCCC1)C(CC(=O)N1CCC(N2CCCCC2)CC1)N1C(=O)C(N2C(=O)OCC2c2ccccc2)C1C=Cc1ccccc1` (stereo not shown) [Example 132D], the IC50 was determined as 6.3 nM and the inhibition constant (Ki) turned out to be 3.9 nM.
For `O=C(NCc1cccc(C(F)(F)F)c1)C(CC(=O)N1CCC(CCN2CCCCC2)CC1)N1C(=O)C(N2C(=O)OCC2c2ccccc2)C1C=Cc1ccccc1` (stereo not shown) [Example 134A] the same measures were 12.9 nM and 7.9 nM.
For `O=C(NCc1cccc(C(F)(F)F)c1)[C@@H](CC(=O)N1CCN(N2CCCC2)CC1)N1C(=O)[C@@H](N2C(=O)OC[C@@H]2c2ccccc2)[C@H]1/C=C/c1ccccc1` [Example 134B] the same measures were 44.8 nM and 27.5 nM.
In the case of `O=C(CC(C(=O)NCc1cccc(C(F)(F)F)c1)N1C(=O)C(N2C(=O)OCC2c2ccccc2)C1C=Cc1ccccc1)NC1CCN(Cc2ccccc2)CC1` (stereo not shown) [Example 134C], the IC50 turned out to be 9.1 nM and the inhibition constant (Ki) came out at 5.58 nM.
The matching figures for `O=C(NCc1cccc(C(F)(F)F)c1)C(CC(=O)N1CCC(CN2CCCCC2)CC1)N1C(=O)C(N2C(=O)OCC2c2ccccc2)C1C=Cc1ccccc1` (stereo not shown) [Example 134G]: 6 nM and 3.7 nM.
Consider `CC(C)(NC(=O)C(CC(=O)N1CCC(N2CCCCC2)CC1)N1C(=O)C(N2C(=O)OCC2c2ccccc2)C1C=Cc1ccccc1)c1ccccc1` (stereo not shown) [Example 134J], for which the IC50 worked out at 5.29 nM and the Ki was 3.25 nM.
Take `O=C(NCc1cccc(C(F)(F)F)c1)C(CCC(=O)N1CCN(CCc2ccccc2)CC1)N1C(=O)C(N2C(=O)OCC2c2ccccc2)C1C=Cc1ccccc1` (stereo not shown) [Example 136]: the IC50 turned out to be 11 nM and the Ki worked out at 33 nM.
With `CCCCN1CCN(C(=O)CCC(C(=O)NCc2cccc(C(F)(F)F)c2)N2C(=O)C(N3C(=O)OCC3c3ccccc3)C2C=Cc2ccccc2)CC1` (stereo not shown) [Example 137], the half-inhibitory concentration (IC50) is 17 nM and the Ki stood at 10.5 nM.
For `CC(C)N1CCN(C(=O)CCC(C(=O)NCc2cccc(C(F)(F)F)c2)N2C(=O)C(N3C(=O)OCC3c3ccccc3)C2C=Cc2ccccc2)CC1` (stereo not shown) [Example 138] the same measures were 21 nM and 13 nM.
